Reference: patent US12391692B2, “Spiro ring-containing quinazoline compound” (WIGEN BIOMEDICINE TECHNOLOGY (SHANGHAI) CO., LTD., priority 2020, dated 2025)

Assays:
pERK level in H358 cells = experiment: pERK and ERK protein content assay in H358 cells (ELISA); format: cell-based; details: Homo sapiens, NCI-H358, pERK/ERK ratio vs DMSO group, compound 1 μM, 24 h, read-out: Inhibition rate (%)
Method: H358 cells were seeded in a 24-well plate. After one day of growth, a test compound (at a concentration of 1 μM) was added. After 24 h of action of the compound, the cells were lysed, and the cell lysate was transferred to a 96-well ELISA plate. The levels of pERK and ERK in the lysate were measured using an ELISA kit (abcam 176660). The ratio of pERK to ERK was calculated and compared with that of the DMSO group, and the percentage of inhibition of pERK activity by the compound was calculated.

H358 cells = experiment: Antiproliferative activity against H358 cells (Cell Titer Glow, ultra-low attachment plate); format: cell-based; details: Homo sapiens, NCI-H358, 72 h, three days after addition of compound
Method: 2500 H358 cells were seeded in a 96-well ultra-low attachment plate (corning, 7007). After one day of growth, a serially diluted compound (a maximum concentration of 5 μM, 5-fold dilution, a total of five doses) was added. Three days after the addition of the compound, Cell Titer Glow (Promega, G9681) was added to evaluate pellet growth, and the IC50 value was calculated.

Compound | inhibition at 1 µM (pERK level in H358 cells) | IC50 (H358 cells)
C=CC(=O)N1CC2(CCN(c3nc(N4CCOC5(CN(C)C5)C4)nc4c(OCC(F)(F)F)c(-c5c(C)ccc6[nH]ncc56)c(C5CC5)cc34)CC2)C1 [Compound 83] | 50 to 90% | 0.3 to 1 µM
C=CC(=O)N1CC2(CCN(c3nc(N4CC(n5cccn5)C4)nc4c(OCC(F)(F)F)c(-c5c(C)ccc6[nH]ncc56)c(C5CC5)cc34)CC2)C1 [Compound 40] | 50 to 90% | > 1 µM
C=CC(=O)N1CC2(CCN(c3nc(N4CC(N5CC6(CC6)C5)C4)nc4c(OCC(F)(F)F)c(-c5c(F)cccc5F)c(C5CC5)cc34)CC2)C1 [Compound 113] | 50 to 90% | 0.3 to 1 µM
C=CC(=O)N1CC2(CCN(c3nc(N4CC5(CCCN5CCOC)C4)nc4c(OCC(F)(F)F)c(-c5c(C)ccc6[nH]ncc56)c(C5CC5)cc34)CC2)C1 [Compound 74] | > 90% | < 0.3 µM
C=CC(=O)N1CC2(CCN(c3nc(N4CCC5(CCN5CCOC)C4)nc4c(OCC(F)(F)F)c(-c5c(C)ccc6[nH]ncc56)c(C5CC5)cc34)CC2)C1 (stereo not shown) [Compound 78] | > 90% | < 0.3 µM
C=CC(=O)N1CC2(CCN(c3nc(N4CC(N(C)CCCO)C4)nc4c(OCC(F)(F)F)c(-c5c(C)ccc6[nH]ncc56)c(C5CC5)cc34)CC2)C1 [Compound 23] | > 90% | < 0.3 µM
C=CC(=O)N1CC2(CCN(c3nc(N4CC5(C4)CC(F)(F)CN5CC)nc4c(OCC(F)(F)F)c(-c5c(C)ccc6[nH]ncc56)c(C5CC5)cc34)CC2)C1 [Compound 130] | > 90% | < 0.3 µM
C=CC(=O)N1CC2(CCN(c3nc(N4CC(S(=O)(=O)N5CCN(C)CC5)C4)nc4c(OCC(F)(F)F)c(-c5c(C)ccc6[nH]ncc56)c(C5CC5)cc34)CC2)C1 [Compound 49] | > 90% | < 0.3 µM
C=CC(=O)N1CC2(CCN(c3nc(N4CC(N5CC6(CC6)C5)C4)nc4c(OCC(F)(F)F)c(-c5c(O)cccc5F)c(C5CC5)cc34)CC2)C1 [Compound 112] | > 90% | < 0.3 µM
C=CC(=O)N1CCC2(CC1)CN(c1nc(N3CC(N4CCC5(CC5)C4)C3)nc3c(OCC(F)(F)F)c(-c4c(C)ccc5[nH]ncc45)c(C4CC4)cc13)C2 [Compound 115] | > 90% | < 0.3 µM
C=CC(=O)N1CC2(CCN(c3nc(N4CC(N5CC6(CCOCC6)C5)C4)nc4c(OCC(F)(F)F)c(-c5c(C)ccc6[nH]ncc56)c(C5CC5)cc34)CC2)C1 [Compound 33] | 50 to 90% | 0.3 to 1 µM
C=CC(=O)N1CC2(CCN(c3nc(O[C@H]4C[C@H](N5CCCC5)C4)nc4c(OCC(F)(F)F)c(-c5c(C)ccc6[nH]ncc56)c(C5CC5)cc34)CC2)C1 [Compound 90] | 50 to 90% | 0.3 to 1 µM
C=CC(=O)N1CC2(CCN(c3nc(N4CC(N5CC6(CC6)C5)C4)nc4c(O[C@@H](C)C(F)(F)F)c(-c5c(C)ccc6[nH]ncc56)c(C5CC5)cc34)CC2)C1 [Compound 99] | > 90% | < 0.3 µM
C=CC(=O)N1CC2(CCN(c3nc(N4CC(CC#N)(N(C)CCO)C4)nc4c(OCC(F)(F)F)c(-c5c(C)ccc6[nH]ncc56)c(C5CC5)cc34)CC2)C1 [Compound 52] | > 90% | < 0.3 µM
C=CC(=O)N1CC2(CCN(c3nc(N4CC(CO)C4)nc4c(OCC(F)(F)F)c(-c5c(C)ccc6[nH]ncc56)c(C5CC5)cc34)CC2)C1 [Compound 3] | 50 to 90% | 0.3 to 1 µM
C=CC(=O)N1CC2(CCN(c3nc(N4CC5(CCN5CC(F)(F)F)C4)nc4c(OCC(F)(F)F)c(-c5c(C)ccc6[nH]ncc56)c(C5CC5)cc34)CC2)C1 [Compound 68] | > 90% | < 0.3 µM
C=CC(=O)N1CC2(CCN(c3nc(N4CC(O)C4)nc4c(OCC(F)(F)F)c(-c5c(C)ccc6[nH]ncc56)c(C5CC5)cc34)CC2)C1 [Compound 2] | > 90% | < 0.3 µM
C=CC(=O)N1CC2(CCN(c3nc(N4CC5(CN(C)CCO5)C4)nc4c(OCC(F)(F)F)c(-c5c(C)ccc6[nH]ncc56)c(C5CC5)cc34)CC2)C1 [Compound 81] | > 90% | < 0.3 µM
C=CC(=O)N1CC2(CCN(c3nc(N4CC(C)(CN5CCCC5)C4)nc4c(OCC(F)(F)F)c(-c5c(C)ccc6[nH]ncc56)c(C5CC5)cc34)CC2)C1 [Compound 64] | > 90% | < 0.3 µM
C=CC(=O)N1CC2(CCN(c3nc(N4CC5(CC(OC)CN5CC)C4)nc4c(OCC(F)(F)F)c(-c5c(C)ccc6[nH]ncc56)c(C5CC5)cc34)CC2)C1 (stereo not shown) [Compound 124] | > 90% | < 0.3 µM
